Assay results published in article PMC9354042, “Discovery of BRAF/HDAC Dual Inhibitors Suppressing Proliferation of Human Colorectal Cancer Cells” (Frontiers in Chemistry, 2022).

Assays:
HCT116 cells = experiment: Antiproliferation CCK-8 assay, HCT116; assay type: cell-based; conditions: Homo sapiens, HCT-116; CCK-8, 72 h, HCT116 (wild-type BRAF); means of three independent experiments; read-out: Cellular IC50 HCT116
Experimental: (§1) HCT116 and HT-29 cells were obtained from the Shanghai Cell Bank (Type Culture Collection (TCC), Chinese Academy of Sciences) and cultured in DMEM (10–013-CVR, corning) supplemented with 10% fetal bovine serum (04-001-1A, BI), 1% penicillin/streptomycin (03-031-1B, BI).
(§2) The cells in the logarithmic phase were placed in 96-well plates (∼3000 cells/well) in a complete medium. After incubation overnight, the cells were exposed to the corresponding compounds or vehicle control at the indicated concentration for a further 72 h. Cell proliferation was evaluated using Cell Counting Kit 8 (CCK8, CK04, Dojindo Laboratories, Kumamoto, Japan). OD450 and OD650 were determined using a microplate reader. Absorbance rate (A) for each well was calculated as OD450 −OD650. […] Each IC50 value is expressed as mean ± SD. As is the absorbance rate of the test compound well, Ac is the absorbance rate of the well without either the cell or test compound, and Ab is the absorbance rate of the well with the cell and vehicle control.

[1] = test system: Ac-histone H3, Ac-α-tubulin, p-ERK in HT-29 cells; experiment: Western blot analysis of HDAC and RAF pathway in HT-29 cells; assay type: cell-based, human; conditions: 0.12-10 μM, 6 h
Experimental: (§3) FIGURE 3 Characterization of dual inhibition of HDAC and RAF pathway. Western blot analysis of 14b in HCT116 cells (A) and in HT-29 cells (B). Cells were treated with 0 μM, 0.12 μM, 0.37 μM, 1.1 μM, 3.3 μM, and 10 μM of drugs and incubated for 6 h. The cell lysis was subjected to Western blot analysis.
(§4) The cells were treated with various concentrations of 14b for 6 h. Then, the cells were lysed using 1×SDS sample lysis buffer (CST recommended) with protease and phosphatase inhibitors. Cell lysates were loaded and electrophoresed onto 8–12% SDS-PAGE gel, and then the separated proteins were transferred to a PVDF film. The film was blocked with 5% BSA (Sigma-Aldrich, St. Louis, MO, United States) in a TBS solution containing 0.5% Tween-20 for 4 h at room temperature, then incubated with the corresponding primary antibody (1:1000–1:200) overnight at 4°C. After washing with TBST, HRP-conjugated secondary antibody was incubated for 2 h. The protein signals were visualized by the ECL Western Blotting Detection Kit (Thermo Scientific, Grand Island, NY, United States), and detected with Amersham Imager 600 system (GE, Boston, MA, United States).

[2] = test system: Ac-histone H3, Ac-α-tubulin, p-ERK in HCT116 cells; experiment: Western blot analysis of HDAC and RAF pathway in HCT116 cells; assay type: cell-based, human; conditions: 0.12-10 μM, 6 h; for phosphorylation of ERK (p-ERK): HCT116 cells (wild-type BRAF, K-RAS G13D); for acetylated histone H3 (Ac-histone H3) / acetylated α-tubulin (Ac-α-tubulin): HCT116 cells
Experimental: as §3, §4

HT-29 cells = experiment: Antiproliferation CCK-8 assay, HT-29; assay type: cell-based; conditions: Homo sapiens; CCK-8, 72 h, HT-29 (BRAF^V600E); means of three independent experiments; read-out: Cellular IC50 HT-29
Experimental: as §1, §2

BRAF (wild-type) [3] = experiment: wild-type BRAF enzymatic activity, Z'-Lyte kinase assay; assay type: biochemical; conditions: ratio of enzymatic IC50
Experimental: (§5) The experiments were performed according to the instructions of the manufacturer. […] For each assay, 10 μl kinase reactions were added to 384-well plate, mixed thoroughly, and incubated for 1 hour at room temperature. Then, a 5 μl development solution was added to each well and the plate was incubated for another 1 h at room temperature. Then, a 5 μl stop reagent was loaded to stop the reaction. For the control setting, a 5 μl phospho-peptide solution instead of kinase/peptide mixture was used as 100% phosphorylation control. […] The plate was measured on an EnVision Multilabel Reader (Perkin-Elmer). Curve fitting and data presentations were performed using GraphPad Prism, version 5.0. Every experiment was repeated at least two times.

BRAF (wild-type) [4] = target: T1, BRAF (wild-type) (Homo sapiens, UniProt P15056); experiment: as above; assay type: biochemical; conditions: wild-type BRAF kinase; read-out: BRAF^wt enzymatic IC50
T1 construct: purchased Invitrogen
T1 sequence (P15056 whole entry): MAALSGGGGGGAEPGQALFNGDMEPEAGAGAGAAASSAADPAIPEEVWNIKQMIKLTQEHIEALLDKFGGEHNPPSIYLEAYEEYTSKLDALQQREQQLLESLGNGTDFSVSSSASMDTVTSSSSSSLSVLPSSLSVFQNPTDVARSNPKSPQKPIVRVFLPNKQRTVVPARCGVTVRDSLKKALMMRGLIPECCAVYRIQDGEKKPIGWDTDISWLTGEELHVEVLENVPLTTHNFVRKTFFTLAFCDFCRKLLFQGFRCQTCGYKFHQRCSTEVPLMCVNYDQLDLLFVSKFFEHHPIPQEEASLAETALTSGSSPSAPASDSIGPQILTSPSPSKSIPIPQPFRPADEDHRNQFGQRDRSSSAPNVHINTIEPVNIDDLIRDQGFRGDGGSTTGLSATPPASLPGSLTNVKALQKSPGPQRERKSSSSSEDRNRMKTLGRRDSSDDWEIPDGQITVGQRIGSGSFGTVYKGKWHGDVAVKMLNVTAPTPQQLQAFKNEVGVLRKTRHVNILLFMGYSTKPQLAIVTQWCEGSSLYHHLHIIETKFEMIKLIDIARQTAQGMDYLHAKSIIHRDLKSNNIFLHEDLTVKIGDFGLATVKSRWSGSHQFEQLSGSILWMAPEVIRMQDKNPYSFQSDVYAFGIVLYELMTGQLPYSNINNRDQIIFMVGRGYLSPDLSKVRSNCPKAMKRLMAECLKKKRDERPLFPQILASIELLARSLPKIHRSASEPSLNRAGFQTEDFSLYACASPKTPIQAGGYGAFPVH
Experimental: as §5

HDAC6 = target: T2, HDAC6 (Homo sapiens, UniProt Q9UBN7); experiment: HDAC6 fluorescent-based enzymatic activity assay; assay type: biochemical; conditions: Table 1; read-out: Enzymatic IC50 HDAC6
T2 construct: purchased BPS Bioscience
T2 sequence (Q9UBN7 1-1215): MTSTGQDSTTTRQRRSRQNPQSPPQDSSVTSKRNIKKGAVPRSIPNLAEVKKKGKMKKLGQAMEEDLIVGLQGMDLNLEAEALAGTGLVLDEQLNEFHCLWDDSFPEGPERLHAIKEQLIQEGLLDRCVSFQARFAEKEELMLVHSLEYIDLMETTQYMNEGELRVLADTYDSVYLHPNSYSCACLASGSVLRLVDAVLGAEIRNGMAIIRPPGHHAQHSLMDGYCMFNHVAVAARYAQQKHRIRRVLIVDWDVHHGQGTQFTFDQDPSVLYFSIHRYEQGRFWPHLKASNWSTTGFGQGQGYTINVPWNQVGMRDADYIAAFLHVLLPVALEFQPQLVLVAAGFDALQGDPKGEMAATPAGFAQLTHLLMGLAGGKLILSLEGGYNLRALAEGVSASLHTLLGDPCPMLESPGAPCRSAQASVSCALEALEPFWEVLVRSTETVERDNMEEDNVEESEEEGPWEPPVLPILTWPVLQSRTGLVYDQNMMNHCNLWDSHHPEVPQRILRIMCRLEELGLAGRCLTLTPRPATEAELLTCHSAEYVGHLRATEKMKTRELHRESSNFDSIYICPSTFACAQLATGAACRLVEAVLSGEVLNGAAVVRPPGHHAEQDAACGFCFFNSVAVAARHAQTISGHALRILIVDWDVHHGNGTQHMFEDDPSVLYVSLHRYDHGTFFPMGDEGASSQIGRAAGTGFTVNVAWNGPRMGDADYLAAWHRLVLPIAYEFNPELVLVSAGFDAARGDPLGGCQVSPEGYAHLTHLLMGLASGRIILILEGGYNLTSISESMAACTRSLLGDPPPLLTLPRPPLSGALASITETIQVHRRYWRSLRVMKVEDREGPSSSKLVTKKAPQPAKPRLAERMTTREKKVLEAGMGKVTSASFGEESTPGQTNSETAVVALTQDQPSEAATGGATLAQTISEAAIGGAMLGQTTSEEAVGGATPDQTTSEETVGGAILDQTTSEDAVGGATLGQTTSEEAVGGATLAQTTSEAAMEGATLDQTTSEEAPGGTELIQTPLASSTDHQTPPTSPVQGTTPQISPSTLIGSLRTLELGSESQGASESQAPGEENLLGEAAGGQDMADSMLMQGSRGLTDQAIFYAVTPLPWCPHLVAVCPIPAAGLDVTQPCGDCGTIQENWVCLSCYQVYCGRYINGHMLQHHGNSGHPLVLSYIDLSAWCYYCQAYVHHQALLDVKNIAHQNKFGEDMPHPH
Experimental: (§6) The purified recombinant Human HDACs and their corresponding substrates were purchased from BPS Bioscience (BPS Bioscience Inc., United States). The assays were carried out in a 384-well format using the BPS fluorescent–based HDAC activity assay according to the manufacturer’s protocol. In brief, […] of the HDAC reaction mixture was composed of HDAC assay buffer, […] BSA, serial diluted test compounds, appropriate concentration of HDACs, and […] fluorogenic substrate, the mixture was incubated at 37°C for 60 min, and then stopped by the addition of developer containing trypsin and TSA. After 20 min of incubation, the fluorescence was detected at the excitation wavelength of 360 nm and the emission wavelength of 460 nm using the EnVision Multilabel Reader (PerkinElmer Inc., United States). The analytical software, GraphPad Prism 5.0 (GraphPad Software, Inc., United States) was used to generate IC50 value via non-linear regression analysis.

BRAF^V600E = target: T3, BRAF^V600E (Homo sapiens, UniProt P15056, V600E); experiment: BRAF V600E enzymatic activity, FRET-based Z'-Lyte kinase assay; assay type: biochemical
T3 construct: purchased Invitrogen
T3 sequence (P15056 whole entry V600E): as the sequence (P15056 whole entry) above, with V600E counted along it
Experimental: as §5

HDAC1 = target: T4, HDAC1 (Homo sapiens, UniProt Q13547); experiment: HDAC1 fluorescent-based enzymatic activity assay; assay type: biochemical; conditions: Table 1; read-out: Enzymatic IC50 HDAC1
T4 construct: purchased BPS Bioscience
T4 sequence (Q13547 whole entry): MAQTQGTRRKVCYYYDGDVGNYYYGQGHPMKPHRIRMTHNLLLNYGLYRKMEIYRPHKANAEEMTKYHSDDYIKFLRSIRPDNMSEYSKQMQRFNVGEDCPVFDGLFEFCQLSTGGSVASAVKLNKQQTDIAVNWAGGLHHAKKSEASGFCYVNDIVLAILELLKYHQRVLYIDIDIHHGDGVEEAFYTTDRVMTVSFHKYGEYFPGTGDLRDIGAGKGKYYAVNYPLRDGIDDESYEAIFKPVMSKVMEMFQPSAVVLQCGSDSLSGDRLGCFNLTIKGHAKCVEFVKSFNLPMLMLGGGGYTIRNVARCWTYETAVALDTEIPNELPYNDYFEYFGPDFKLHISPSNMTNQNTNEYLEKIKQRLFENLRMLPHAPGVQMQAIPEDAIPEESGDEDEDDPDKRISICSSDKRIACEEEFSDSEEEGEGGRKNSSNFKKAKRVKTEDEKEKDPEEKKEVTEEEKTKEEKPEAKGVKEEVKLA
Experimental: as §6

HDAC8 = target: T5, HDAC8 (Homo sapiens, UniProt Q9BY41); experiment: HDAC8 fluorescent-based enzymatic activity assay; assay type: biochemical; conditions: for fold more potent than 14b against HDAC8: HDAC8 IC50 relative to 14b; for IC50: Supplementary Table 1, read-out: HDAC8 Enzymatic IC50
T5 construct: purchased BPS Bioscience
T5 sequence (Q9BY41 1-377): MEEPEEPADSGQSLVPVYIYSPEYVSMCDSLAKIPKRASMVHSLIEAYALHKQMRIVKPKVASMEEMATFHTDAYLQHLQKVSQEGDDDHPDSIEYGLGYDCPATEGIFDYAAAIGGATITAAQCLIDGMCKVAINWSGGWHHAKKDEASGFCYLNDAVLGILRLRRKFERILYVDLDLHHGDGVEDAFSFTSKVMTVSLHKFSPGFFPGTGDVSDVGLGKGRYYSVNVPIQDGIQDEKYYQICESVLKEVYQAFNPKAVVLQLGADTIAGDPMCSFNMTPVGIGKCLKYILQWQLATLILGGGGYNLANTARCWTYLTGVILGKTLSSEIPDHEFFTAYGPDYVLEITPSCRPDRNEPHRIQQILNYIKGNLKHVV
Experimental: as §6

IC50 (HCT116 cells) [nM] | IC50 (HT-29 cells) [nM] | IC50 (BRAF (wild-type) [4]) [nM] | IC50 (HDAC6) [nM] | IC50 (BRAF^V600E) [nM] | IC50 (HDAC1) [nM] | fold more potent than 14b against HDAC8 (HDAC8) [fold] | IC50 (HDAC8) [nM] | SMILES | acetylated histone H3 (Ac-histone H3) [1] | acetylated α-tubulin (Ac-α-tubulin) [1] | phosphorylation of ERK (p-ERK) [1] | phosphorylation of ERK (p-ERK) [2] | acetylated histone H3 (Ac-histone H3) [2] | acetylated α-tubulin (Ac-α-tubulin) [2] | selectivity of BRAF^V600E over wild-type BRAF (BRAF (wild-type) [3]) | other results
> 10000 | 210 | – | – | – | – | – | – | CC(C)(C)c1nc(-c2cccc(NS(=O)(=O)c3c(F)cccc3F)c2F)c(-c2ccnc(N)n2)s1 [Dabrafenib, dabrafenib] | had little impact | had little impact | reduced | paradoxically induced | had little impact | had little impact | – | phosphorylation of ERK (p-ERK) ([1]; listed as dabrafenib): reduced the phosphorylation of ERK; phosphorylation of ERK (p-ERK) ([2]; listed as dabrafenib): causes paradoxical activation of ERK
2060 | 110 | 2.86 | 101 | 1.26 | 474 | 4.8 | 623 | CC(C)(C)c1nc(-c2cccc(NS(=O)(=O)c3ccccc3)c2F)c(-c2ccnc(NCCCCCCC(=O)NO)n2)s1 [21c, 7-{[4-(2-(Tert-Butyl)-4-(2-Fluoro-3-(Phenylsulfonamido)Phenyl)Thiazol-5-yl)Pyrimidin-2-yl]Amino}-N-Hydroxyheptanamide] | – | – | – | – | – | – | about 2 fold | –
1080 | 950 | 3.86 | 140 | 5.14 | 15.6 | 3.4 | 876 | O=C(CCCCCCNc1nccc(-c2sc(-c3ccccc3)nc2-c2cccc(NS(=O)(=O)c3c(F)cccc3F)c2F)n1)NO [14j, 7-{[4-(4-(3-(2,6-Difluorophenylsulfonamido)-2-Fluorophenyl)-2-Phenylthiazol-5-yl)Pyrimidin-2-yl]Amino}-N-Hydroxyheptanamide] | – | – | – | – | – | – | slightly more potent against wild-type BARF | –
– | – | – | – | – | – | – | – | O=C(CCCCCCC(=O)Nc1ccccc1)NO [Vorinostat, vorinostat] | dose-dependently induced | dose-dependently induced | had little impact | had little impact | dose-dependently induced | dose-dependently induced | – | acetylated histone H3 (Ac-histone H3) ([1]; listed as vorinostat): upregulated; acetylated α-tubulin (Ac-α-tubulin) ([1]; listed as vorinostat): upregulated; acetylated histone H3 (Ac-histone H3) ([2]; listed as vorinostat): upregulated; acetylated α-tubulin (Ac-α-tubulin) ([2]; listed as vorinostat): upregulated
